Data taken from patent US20250244419A1, “INFUSION DEVICE FOR THE PREPARATION AND DELIVERY OF MRI PROBES” (The United States of America, as represented by the …, priority 2022, published 2025).

Assay: Relaxation dynamics of hyperpolarized [1-13C]pyruvate (build-up time Tb, T1)
Assay type: physicochemical
Conditions: for corresponding T1 value: same conditions as build-up
Text: In addition, the relaxation dynamics of the [1-^13C]pyruvate were also studied.
In addition, relaxation dynamics at earth field and 1.8 T are about the same as a non-fluorinated SABRE catalyst T1=28.9±1.6 s and 66.5±7 s, respectively.
In addition, relaxation dynamics at earth field and 1.8 T are about the same as a non-fluorinated SABRE catalyst T1=9.0±1.9 s and 16.0±1.4 s, respectively.

[1] = NFBME / deuterated methanol mixture, catalyst of Example 4
[2] = methanol, catalyst of Example 4, DMSO co-ligand

With `C[13C](=O)C(=O)O` [[1-^13C]pyruvate, Sodium [1-^13C]-pyruvate] the “T1 at 1.8 T” value [1] was 16.0 ± 1.4 s, the “T1 at earth field” value [1] was 9.0 ± 1.9 s and the “corresponding T1 value” [1] was 11.3 ± 1.3 s. The “T1 at 1.8 T” value [2] was 66.5 ± 7 s, the “T1 at earth field” value [2] was 28.9 ± 1.6 s and the “corresponding T1 value” [2] was 16.1 ± 0.9 s.
